Experimental data from patent publication US11497752B2, “Compounds and uses thereof” (Foghorn Therapeutics Inc., priority 2018, dated 2022).

Key:
[1] = target: BRM (Homo sapiens, UniProt P51531); experiment: ATPase catalytic activity of BRM (ADP-Glo in vitro biochemical assay)
[2] = target: BRG-1 (Homo sapiens, UniProt P51532); experiment: ATPase catalytic activity of BRG-1 (ADP-Glo in vitro biochemical assay)
BRG-1, sequence (P51532 whole entry): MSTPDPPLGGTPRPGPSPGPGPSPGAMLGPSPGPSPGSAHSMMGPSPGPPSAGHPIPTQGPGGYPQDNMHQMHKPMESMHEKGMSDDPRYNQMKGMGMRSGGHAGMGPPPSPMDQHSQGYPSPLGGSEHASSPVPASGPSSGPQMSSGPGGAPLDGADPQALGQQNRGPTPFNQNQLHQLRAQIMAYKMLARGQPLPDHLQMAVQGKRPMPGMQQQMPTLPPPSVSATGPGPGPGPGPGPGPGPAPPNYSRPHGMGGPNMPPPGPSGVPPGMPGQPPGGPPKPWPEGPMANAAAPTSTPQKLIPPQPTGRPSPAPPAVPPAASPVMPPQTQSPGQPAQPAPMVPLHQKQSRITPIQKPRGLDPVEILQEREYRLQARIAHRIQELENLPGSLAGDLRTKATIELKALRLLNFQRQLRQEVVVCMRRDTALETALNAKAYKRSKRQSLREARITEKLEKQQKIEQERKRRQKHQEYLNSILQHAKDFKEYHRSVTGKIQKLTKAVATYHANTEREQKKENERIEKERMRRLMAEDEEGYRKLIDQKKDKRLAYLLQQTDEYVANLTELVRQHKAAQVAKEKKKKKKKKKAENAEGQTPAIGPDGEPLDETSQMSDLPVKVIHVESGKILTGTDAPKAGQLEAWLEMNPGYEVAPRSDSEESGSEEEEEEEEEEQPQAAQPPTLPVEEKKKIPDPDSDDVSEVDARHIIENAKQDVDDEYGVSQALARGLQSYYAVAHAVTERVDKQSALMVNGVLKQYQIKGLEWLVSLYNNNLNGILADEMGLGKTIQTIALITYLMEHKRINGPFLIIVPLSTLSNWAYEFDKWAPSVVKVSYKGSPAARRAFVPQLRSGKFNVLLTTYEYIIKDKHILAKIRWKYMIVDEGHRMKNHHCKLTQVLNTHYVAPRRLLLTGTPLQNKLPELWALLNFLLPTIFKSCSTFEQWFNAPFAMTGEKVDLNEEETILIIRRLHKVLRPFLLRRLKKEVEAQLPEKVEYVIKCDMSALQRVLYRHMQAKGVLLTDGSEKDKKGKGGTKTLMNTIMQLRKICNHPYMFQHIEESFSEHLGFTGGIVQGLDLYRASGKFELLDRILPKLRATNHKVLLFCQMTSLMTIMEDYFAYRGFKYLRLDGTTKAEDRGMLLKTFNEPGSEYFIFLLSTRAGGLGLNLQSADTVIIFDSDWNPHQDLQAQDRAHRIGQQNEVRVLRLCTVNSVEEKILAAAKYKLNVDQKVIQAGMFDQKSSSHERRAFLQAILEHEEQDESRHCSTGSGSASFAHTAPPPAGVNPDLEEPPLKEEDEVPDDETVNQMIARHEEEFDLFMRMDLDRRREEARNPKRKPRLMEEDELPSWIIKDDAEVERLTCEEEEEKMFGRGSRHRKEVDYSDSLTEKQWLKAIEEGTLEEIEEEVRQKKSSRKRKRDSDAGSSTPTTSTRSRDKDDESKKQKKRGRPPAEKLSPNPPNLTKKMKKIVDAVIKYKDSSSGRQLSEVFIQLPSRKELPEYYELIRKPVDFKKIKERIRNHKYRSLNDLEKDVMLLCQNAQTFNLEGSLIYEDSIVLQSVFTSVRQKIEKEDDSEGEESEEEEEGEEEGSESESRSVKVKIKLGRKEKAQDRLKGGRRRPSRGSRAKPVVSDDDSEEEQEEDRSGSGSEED

BRM, sequence (P51531 whole entry): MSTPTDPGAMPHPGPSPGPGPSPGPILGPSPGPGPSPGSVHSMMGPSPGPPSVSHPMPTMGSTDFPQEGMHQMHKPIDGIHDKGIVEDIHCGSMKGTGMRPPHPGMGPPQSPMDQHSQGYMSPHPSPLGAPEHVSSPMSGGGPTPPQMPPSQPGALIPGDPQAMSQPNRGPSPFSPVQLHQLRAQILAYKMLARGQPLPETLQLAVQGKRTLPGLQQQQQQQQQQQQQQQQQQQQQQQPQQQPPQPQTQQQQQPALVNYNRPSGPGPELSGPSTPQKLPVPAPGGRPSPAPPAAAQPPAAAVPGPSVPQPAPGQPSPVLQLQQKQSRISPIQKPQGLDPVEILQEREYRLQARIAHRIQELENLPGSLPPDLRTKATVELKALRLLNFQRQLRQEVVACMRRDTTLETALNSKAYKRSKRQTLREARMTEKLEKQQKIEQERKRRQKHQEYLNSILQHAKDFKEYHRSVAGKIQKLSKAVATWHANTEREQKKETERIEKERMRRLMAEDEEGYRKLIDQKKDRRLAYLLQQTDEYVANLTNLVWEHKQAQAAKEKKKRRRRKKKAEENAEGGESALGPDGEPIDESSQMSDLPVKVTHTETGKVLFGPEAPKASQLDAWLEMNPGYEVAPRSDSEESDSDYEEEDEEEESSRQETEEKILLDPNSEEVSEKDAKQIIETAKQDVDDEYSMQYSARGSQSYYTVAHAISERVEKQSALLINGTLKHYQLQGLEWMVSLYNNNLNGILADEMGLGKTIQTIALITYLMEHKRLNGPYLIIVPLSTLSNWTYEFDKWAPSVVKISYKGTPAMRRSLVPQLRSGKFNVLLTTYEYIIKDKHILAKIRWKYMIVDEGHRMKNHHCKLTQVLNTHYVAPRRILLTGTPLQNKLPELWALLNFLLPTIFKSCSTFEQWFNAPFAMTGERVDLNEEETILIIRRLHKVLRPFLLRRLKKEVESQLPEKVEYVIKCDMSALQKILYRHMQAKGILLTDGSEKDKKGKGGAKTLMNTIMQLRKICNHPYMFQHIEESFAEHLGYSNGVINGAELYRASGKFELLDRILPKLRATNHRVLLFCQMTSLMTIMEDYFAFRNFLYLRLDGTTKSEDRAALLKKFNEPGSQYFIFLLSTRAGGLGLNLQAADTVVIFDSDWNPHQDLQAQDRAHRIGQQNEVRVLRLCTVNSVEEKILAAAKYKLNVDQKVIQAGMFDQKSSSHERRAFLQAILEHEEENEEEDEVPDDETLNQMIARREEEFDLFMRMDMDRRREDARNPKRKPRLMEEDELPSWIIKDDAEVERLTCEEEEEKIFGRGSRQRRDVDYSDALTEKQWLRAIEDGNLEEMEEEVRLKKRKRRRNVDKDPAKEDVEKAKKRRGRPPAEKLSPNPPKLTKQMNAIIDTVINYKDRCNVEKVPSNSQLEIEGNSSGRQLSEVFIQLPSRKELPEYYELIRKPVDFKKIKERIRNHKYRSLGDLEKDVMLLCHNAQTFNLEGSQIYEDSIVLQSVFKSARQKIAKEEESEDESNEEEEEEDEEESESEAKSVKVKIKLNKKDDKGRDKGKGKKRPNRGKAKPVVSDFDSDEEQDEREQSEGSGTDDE

SMILES | IC50 [1] [nM] | BRM Max % Inhibition ([1]; Table 5) [%] | IC50 [2] [nM] | BRG1 Max % Inhibition ([2]; Table 5) [%] | BRM Max % Inhibition ([1]; Table 6) [%] | BRG1 Max % Inhibition ([2]; Table 6) [%]
CCC[C@H](NC(=O)c1cccc(S(=O)(=O)N(C)C)c1)C(=O)Nc1nc(-c2ccccc2)cs1 [Compound 17, 3-(dimethylsulfamoyl)-N-[(1S)-1-[(4-phenylthiazol-2-yl)carbamoyl]butyl]benzamide] | 1000 to 10000 | >80 | > 10000 | >60 | – | –
CNC(=O)c1cccc(-c2csc(NC(=O)CNC(=O)c3cccc(S(=O)(=O)N(C)C)c3)n2)c1 [Compound 4, 3-[2-[[2-[[3-(dimethylsulfamoyl)benzoyl]amino]acetyl]amino]thiazol-4-yl]-N-methyl-benzamide] | 1000 to 10000 | >90 | > 10000 | >70 | – | –
CN(C)C(=O)c1cccc(C(=O)NCC(=O)Nc2nc(-c3ccccc3)cs2)c1 [Compound 78] | > 10000 | – | > 10000 | – | – | –
CSCC[C@H](NC(=O)c1ccc(N)cc1)C(=O)Nc1nc(-c2ccc(C#N)c(-c3ccccc3)c2)cs1 [Compound 119, (S)-4-amino-N-(1-((4-(6-cyano-[1,1′-biphenyl]-3-yl)thiazol-2-yl)amino)-4-(methylthio)-1-oxobutan-2-yl)benzamide] | 100 to 1000 | – | 1000 to 10000 | – | >95 | >95
CS(=O)(=O)c1cccc(C(=O)NCC(=O)Nc2nc(-c3ccc4cc[nH]c(=O)c4c3)cs2)c1 [Compound 88, 3-(methylsulfonyl)-N-(2-oxo-2-((4-(1-oxo-1,2-dihydroisoquinolin-7-yl)thiazol-2-yl)amino)ethyl)benzamide] | 100 to 1000 | – | 1000 to 10000 | – | >95 | >95
Nc1ccc(C(=O)NCC(=O)Nc2nc(-c3cccc(-c4ccnc(N5CCCC(N)C5)c4)c3)cs2)cc1 (stereo not drawn) [Compound 221, 4-amino-N-[2-[[4-[3-[2-(3-amino-1-piperidyl)-4-pyridyl]phenyl]thiazol-2-yl]amino]-2-oxo-ethyl]benzamide] | 100 to 1000 | – | 100 to 1000 | – | >95 | >80
CC(=O)NCc1ccc(-c2csc(NC(=O)CNC(=O)c3cccc(S(=O)(=O)N(C)C)c3)n2)cc1 [Compound 11, N-[2-[[4-[4-(acetamidomethyl)phenyl]thiazol-2-yl]amino]-2-oxo-ethyl]-3-(dimethylsulfamoyl)benzamide] | 1000 to 10000 | >80 | > 10000 | >70 | – | –
Nc1ccc(C(=O)NCC(=O)Nc2nc(-c3cccc(N4CCC[C@H](O)C4)c3)cs2)cc1 [Compound 236, 4-amino-N-[2-[[4-[3-[(3S)-3-hydroxy-1-piperidyl]phenyl]thiazol-2-yl]amino]-2-oxo-ethyl]benzamide] | 100 to 1000 | – | 100 to 1000 | – | >90 | >90
NS(=O)(=O)c1cccc(C(=O)NCC(=O)Nc2nc(-c3ccccc3)cs2)c1 [Compound 28, N-(2-oxo-2-((4-phenylthiazol-2-yl)amino)ethyl)-3-sulfamoylbenzamide] | 1000 to 10000 | >50 | 1000 to 10000 | >30 | – | –
NCc1cc(-c2cccc(-c3csc(NC(=O)CNC(=O)c4ccc(N)cc4)n3)c2)ccn1 [Compound 164, 4-amino-N-(2-((4-(3-(2-(aminomethyl)pyridin-4-yl)phenyl)thiazol-2-yl)amino)-2-oxoethyl)benzamide] | < 100 | – | < 100 | – | >95 | >95
CN(C)S(=O)(=O)c1cccc(C(=O)NCC(=O)Nc2nc(-c3ccccc3C#N)cs2)c1 [Compound 27, N-(2-((4-(2-cyanophenyl)thiazol-2-yl)amino)-2-oxoethyl)-3-(N,N-dimethylsulfamoyl)benzamide] | > 10000 | >60 | > 10000 | >30 | – | –
CN(C)Cc1ccc(-c2cccc(-c3csc(NC(=O)CNC(=O)c4ccc(N)cc4)n3)c2)cc1 [Compound 145, 4-amino-N-(2-((4-(4′-((dimethylamino)methyl)-[1,1′-biphenyl]-3-yl)thiazol-2-yl)amino)-2-oxoethyl)benzamide] | 100 to 1000 | – | 100 to 1000 | – | >90 | >90
CSCC[C@H](NC(=O)c1ccc(C)c(S(C)(=O)=O)c1)C(=O)Nc1nc(-c2ccccc2)cs1 [Compound 2, 4-methyl-N-[(1S)-3-methylsulfanyl-1-[(4-phenylthiazol-2-yl)carbamoyl]propyl]-3-methylsulfonyl-benzamide] | < 1000 | >95 | 1000 to 10000 | >95 | – | –
Nc1ccc(C(=O)NCC(=O)Nc2nc(-c3ccc4[nH]ncc4c3)cs2)cc1 [Compound 192] | 100 to 1000 | – | 100 to 1000 | – | >90 | >90
CS(=O)(=O)c1cccc(C(=O)NCC(=O)Nc2nc(-c3cccc(-c4ccccc4)c3)cs2)c1 [Compound 36, 3-methylsulfonyl-N-[2-oxo-2-[[4-(3-phenylphenyl)thiazol-2-yl]amino]ethyl]benzamide] | < 1000 | >95 | 1000 to 10000 | >90 | – | –
CN(C)C(=O)c1cccc(-c2csc(NC(=O)CNC(=O)c3cccc(S(=O)(=O)N(C)C)c3)n2)c1 [Compound 37, 3-[2-[[2-[[3-(dimethylsulfamoyl)benzoyl]amino]acetyl]amino]thiazol-4-yl]-N,N-dimethyl-benzamide] | > 10000 | >50 | > 10000 | >30 | – | –
Cn1ccc(-c2cccc(-c3csc(NC(=O)CNC(=O)c4ccc(N)cc4)n3)c2)cc1=O [Compound 140, 4-amino-N-(2-((4-(3-(1-methyl-2-oxo-1,2-dihydropyridin-4-yl)phenyl)thiazol-2-yl)amino)-2-oxoethyl)benzamide] | 100 to 1000 | – | 100 to 1000 | – | >95 | >90
CN(C)C(=O)CN(C)c1cc(-c2cccc(-c3csc(NC(=O)CNC(=O)c4ccc(N)cc4)n3)c2)ccn1 [Compound 206, 4-amino-N-[2-[[4-[3-[2-[[2-(dimethylamino)-2-oxo-ethyl]-methyl-amino]-4-pyridyl]phenyl]thiazol-2-yl]amino]-2-oxo-ethyl]benzamide] | 100 to 1000 | – | 100 to 1000 | – | >95 | >95
CNc1ccc(C(=O)N[C@@H](CCSC)C(=O)Nc2nc(-c3ccccc3)cs2)cc1 [Compound 81, 4-(methylamino)-N-[(1S)-3-methylsulfanyl-1-[(4-phenylthiazol-2-yl)carbamoyl]propyl]benzamide] | < 1000 | >95 | < 1000 | >95 | – | –
CSCC[C@H](NC(=O)c1ccc(N)cc1)C(=O)Nc1nc(-c2cccc(-c3nnco3)c2)cs1 [Compound 128, (S)-N-(1-((4-(3-(1,3,4-oxadiazol-2-yl)phenyl)thiazol-2-yl)amino)-4-(methylthio)-1-oxobutan-2-yl)-4-aminobenzamide] | < 100 | – | < 100 | – | >95 | >95
CNC(=O)C1(c2cc(-c3cccc(-c4csc(NC(=O)CNC(=O)c5ccc(N)cc5)n4)c3)ccn2)CC1 [Compound 223, 4-amino-N-[2-[[4-[3-[2-[1-(methylcarbamoyl)cyclopropyl]-4-pyridyl]phenyl]thiazol-2-yl]amino]-2-oxo-ethyl]benzamide] | < 100 | – | < 100 | – | >95 | >90
Cc1ccc(-c2csc(NC(=O)CNC(=O)c3cccc(S(=O)(=O)N(C)C)c3)n2)cc1 [Compound 31, 3-(dimethylsulfamoyl)-N-[2-oxo-2-[[4-(p-tolyl)thiazol-2-yl]amino]ethyl]benzamide] | 1000 to 10000 | >30 | 1000 to 10000 | <30 | – | –
Nc1ccc(C(=O)NCC(=O)Nc2nc(-c3ccc4c(c3)OCCO4)cs2)cc1 [Compound 109, 4-amino-N-(2-((4-(2,3-dihydrobenzo[b][1,4]dioxin-6-yl)thiazol-2-yl)amino)-2-oxoethyl)benzamide] | 100 to 1000 | – | 100 to 1000 | – | >90 | >90
Cc1cc(-c2cccc(-c3csc(NC(=O)CNC(=O)c4ccc(N)cc4)n3)c2)on1 [Compound 231, 4-amino-N-[2-[[4-[3-(3-methylisoxazol-5-yl)phenyl]thiazol-2-yl]amino]-2-oxo-ethyl]benzamide] | 100 to 1000 | – | – | – | – | –
Cc1nnc(-c2cccc(-c3csc(NC(=O)CNC(=O)c4ccc(N)cc4)n3)c2)o1 [Compound 113, 4-amino-N-(2-((4-(3-(5-methyl-1,3,4-oxadiazol-2-yl)phenyl)thiazol-2-yl)amino)-2-oxoethyl)benzamide] | 100 to 1000 | – | – | – | – | –
CSCC[C@@H](NC(=O)c1ccc(N)cc1)C(=O)Nc1nc(-c2cccc(-c3ccncc3)c2)cs1 [Compound 155, (R)-4-amino-N-(4-(methylthio)-1-oxo-1-((4-(3-(pyridin-4-yl)phenyl)thiazol-2-yl)amino)butan-2-yl)benzamide] | – | – | – | – | >80 | –
CSCC[C@H](NC(=O)c1ccc2[nH]ccc2c1)C(=O)Nc1nc(-c2ccccc2)cs1 [Compound 83, (S)—N-(4-(methylthio)-1-oxo-1-((4-phenylthiazol-2-yl)amino)butan-2-yl)-1H-indole-5-carboxamide] | 1000 to 10000 | >90 | – | – | – | –
Nc1ccc(C(=O)NCC(=O)Nc2nc(-c3cccc(-c4ccncc4)c3)cs2)cc1 [Compound 117, 4-amino-N-(2-oxo-2-((4-(3-(pyridin-4-yl)phenyl)thiazol-2-yl)amino)ethyl)benzamide] | < 100 | – | – | – | – | –
